Reference: ChEMBL document CHEMBL3994622, “Design and synthesis of new RAF kinase-inhibiting antiproliferative quinoline derivatives. Part 2: Diarylurea derivatives” (Eur J Med Chem, 2017)

Assays:
[1] = tested on: SN12C; experiment: Growth inhibition of human SN12C cells incubated for 48 hrs by sulforhodamine B assay; type: functional
[2] = tested on: SW-620; experiment: Growth inhibition of human SW620 cells assessed as cell growth at 100 uM incubated for 48 hrs by sulforhodamine B assay relative to control; type: functional; conditions: SW-620, 48 h, read-out: Activity
[3] = tested on: KM12; experiment: Growth inhibition of human KM12 cells incubated for 48 hrs by sulforhodamine B assay; type: functional; conditions: KM12, 48 h
[4] = tested on: NCI-H522; experiment: Growth inhibition of human NCI-H522 cells incubated for 48 hrs by sulforhodamine B assay; type: functional; conditions: NCI-H522, 48 h
[5] = tested on: TK-10; experiment: Growth inhibition of human TK10 cells incubated for 48 hrs by sulforhodamine B assay; type: functional; conditions: TK-10, 48 h
[6] = tested on: HL-60(TB); experiment: Growth inhibition of human HL-60(TB) cells incubated for 48 hrs by sulforhodamine B assay; type: functional; conditions: HL-60, 48 h
[7] = tested on: SF-268; experiment: Growth inhibition of human SF268 cells incubated for 48 hrs by sulforhodamine B assay; type: functional; conditions: SF-268, 48 h
[8] = tested on: HT-29; experiment: Growth inhibition of human HT-29 cells incubated for 48 hrs by sulforhodamine B assay; type: functional; conditions: HT-29, 48 h
[9] = tested on: MCF7; experiment: Growth inhibition of human MCF7 cells incubated for 48 hrs by sulforhodamine B assay; type: functional; conditions: MCF7, 48 h
[10] = tested on: SF-539; experiment: Growth inhibition of human SF539 cells assessed as cell growth at 10 uM incubated for 48 hrs by sulforhodamine B assay relative to control; type: functional; conditions: SF-539, 48 h, read-out: Activity
[11] = tested on: HCC 2998; experiment: Growth inhibition of human HCC2998 cells assessed as cell growth at 100 uM incubated for 48 hrs by sulforhodamine B assay relative to control; type: functional; conditions: HCC 2998, 48 h, read-out: Activity
[12] = tested on: NCI-H23; experiment: Growth inhibition of human NCI-H23 cells incubated for 48 hrs by sulforhodamine B assay; type: functional; conditions: NCI-H23, 48 h
[13] = tested on: CAKI-1; experiment: Growth inhibition of human Caki1 cells incubated for 48 hrs by sulforhodamine B assay; type: functional; conditions: CAKI-1, 48 h
[14] = tested on: DU-145; experiment: Growth inhibition of human DU145 cells incubated for 48 hrs by sulforhodamine B assay; type: functional; conditions: DU-145, 48 h
[15] = tested on: NCI-H226; experiment: Growth inhibition of human NCI-H226 cells incubated for 48 hrs by sulforhodamine B assay; type: functional; conditions: NCI-H226, 48 h
[16] = tested on: HOP-62; experiment: Growth inhibition of human HOP62 cells incubated for 48 hrs by sulforhodamine B assay; type: functional; conditions: HOP-62, 48 h
[17] = tested on: UACC-62; experiment: Growth inhibition of human UACC62 cells incubated for 48 hrs by sulforhodamine B assay; type: functional; conditions: UACC-62, 48 h
[18] = tested on: COLO 205; experiment: Growth inhibition of human COLO205 cells incubated for 48 hrs by sulforhodamine B assay; type: functional; conditions: COLO 205, 48 h
[19] = tested on: 786-0; experiment: Growth inhibition of human 786-0 cells incubated for 48 hrs by sulforhodamine B assay; type: functional; conditions: 786-0, 48 h
[20] = target: RAF proto-oncogene serine/threonine-protein kinase (Homo sapiens, UniProt P04049); experiment: Inhibition of human c-RAF using MEK1 as substrate in presence of [33P]ATP by Hotspot assay
RAF proto-oncogene serine/threonine-protein kinase, sequence (P04049 whole entry): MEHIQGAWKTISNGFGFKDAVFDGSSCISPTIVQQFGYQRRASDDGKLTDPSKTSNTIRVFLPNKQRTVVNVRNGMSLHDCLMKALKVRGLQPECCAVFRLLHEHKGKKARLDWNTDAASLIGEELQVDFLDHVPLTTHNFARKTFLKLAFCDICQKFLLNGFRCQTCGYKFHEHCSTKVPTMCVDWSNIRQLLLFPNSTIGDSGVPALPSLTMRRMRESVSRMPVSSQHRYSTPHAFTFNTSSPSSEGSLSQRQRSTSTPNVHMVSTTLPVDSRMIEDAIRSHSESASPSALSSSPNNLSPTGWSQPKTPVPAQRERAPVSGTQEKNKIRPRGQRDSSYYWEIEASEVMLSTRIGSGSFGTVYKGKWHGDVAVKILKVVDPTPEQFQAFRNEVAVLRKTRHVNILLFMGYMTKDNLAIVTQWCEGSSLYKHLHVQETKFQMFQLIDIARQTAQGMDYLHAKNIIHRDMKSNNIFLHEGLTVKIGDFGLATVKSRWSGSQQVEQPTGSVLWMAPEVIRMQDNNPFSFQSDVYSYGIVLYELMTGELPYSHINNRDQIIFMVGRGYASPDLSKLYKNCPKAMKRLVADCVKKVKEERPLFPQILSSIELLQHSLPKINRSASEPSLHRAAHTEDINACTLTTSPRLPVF

[21] = tested on: Hs-578T; experiment: Growth inhibition of human Hs 578T cells incubated for 48 hrs by sulforhodamine B assay; type: functional
[22] = tested on: SK-MEL-5; experiment: Growth inhibition of human SK-MEL-5 cells incubated for 48 hrs by sulforhodamine B assay; type: functional; conditions: SK-MEL-5, 48 h
[23] = tested on: NCI/ADR-RES; experiment: Growth inhibition of human NCI/ADR-RES cells incubated for 48 hrs by sulforhodamine B assay; type: functional
[24] = tested on: SNB-19; experiment: Growth inhibition of human SNB19 cells incubated for 48 hrs by sulforhodamine B assay; type: functional; conditions: SNB-19, 48 h
[25] = tested on: A549; experiment: Growth inhibition of human A549/ATCC cells assessed as cell growth at 0.1 uM incubated for 48 hrs by sulforhodamine B assay relative to control; type: functional; conditions: A549, 48 h, read-out: Activity
[26] = read-out: LC50 (the source's name)

Compound `COc1cc2cc(Oc3ccc(NC(=O)Nc4cc(C(F)(F)F)cc(C(F)(F)F)c4)cc3)c(C)nc2cc1OC` has a GI50 [1] of 590 nM, a TGI [1] of 2090 nM and a CC50 [1, 26] of 32.5 µM. It also gave a growth at 100 µM [2] of -66%, a GI50 [3] of 918 to 920 nM and a TGI [3] of 2460 nM. It also gave a CC50 [3, 26] of 6.27 µM, a GI50 [4] of 1250 nM and a TGI [4] of 2950 nM. It also gave a CC50 [4, 26] of 6.95 µM, a GI50 [5] of 2320 nM and a TGI [5] of 9.18 µM. The CC50 [5, 26] was 5.99 µM, the GI50 [6] was 1580 nM and the TGI [6] was 4.37 µM. For the same compound, the CC50 [6, 26] was 41.8 µM, the GI50 [7] was 1620 nM and the LC50 (50% lethal concentration) [7] was 8.37 µM. For the same compound, the TGI [7] was 3.68 µM, the GI50 [8] was 1520 nM and the TGI [8] was 3.46 µM. The CC50 [8, 26] was 7.91 µM, the GI50 [9] was 540 nM and the TGI [9] was 2360 nM. For the same compound, the CC50 [9, 26] was 5.75 µM, the growth at 10 µM [10] was -72% and the growth at 100 µM [11] was -92%. For the same compound, the GI50 [12] was 639 to 640 nM, the TGI [12] was 3.55 µM and the CC50 [12, 26] was 32.3 µM. It also gave a GI50 [13] of 1410 nM, a TGI [13] of 5.1 µM and a CC50 [13, 26] of 15.3 µM. The GI50 [14] was 2380 nM, the TGI [14] was 9.36 µM and the CC50 [14, 26] was 8.06 µM. It also gave a GI50 [15] of 1800 nM, a TGI [15] of 3.91 µM and a CC50 [15, 26] of 8.53 µM. The GI50 [16] was 1350 nM, the TGI [16] was 2880 nM and the CC50 [16, 26] was 6.15 µM. It also gave a GI50 [17] of 560 nM, a TGI [17] of 2090 nM and a CC50 [17, 26] of 6.03 µM. It also gave a GI50 [18] of 1790 nM, a TGI [18] of 3.58 µM and a CC50 [18, 26] of 7.18 µM. It also gave a GI50 [19] of 1610 nM, a TGI [19] of 3.09 µM and a CC50 [19, 26] of 13.8 µM. The IC50 [20] was 370 nM, the GI50 [21] was 2650 nM and the TGI [21] was 6.94 µM. It also gave a CC50 [21, 26] of 8.07 µM, a GI50 [22] of 1620 nM and a TGI [22] of 3.28 µM. The CC50 [22, 26] was 6.67 µM, the GI50 [23] was 1270 nM and the TGI [23] was 3.44 µM. The CC50 [23, 26] was 7.04 µM, the GI50 [24] was 650 to 654 nM and the TGI [24] was 2160 nM. The CC50 [24, 26] was 5.73 µM and the growth at 0.1 µM [25] was 99%.
